Assay results as given in article PMC8854719, “Phase 1A/1B dose-escalation and -expansion study to evaluate the safety, pharmacokinetics, food effects and antitumor activity of pamiparib in advanced solid tumours” (British Journal of Cancer, 2021).

Assay: Safety and tolerability: adverse events, dose-limiting toxicities, MTD, RP2D (Phase 1A/1B)
Type: in vivo
Method: This was an open-label, Phase 1, dose-escalation/dose-expansion study, conducted across six study centres in Australia. The dose-escalation phase evaluated twice-daily (BID) and once-daily (QD) dosing, and the dose-expansion phase evaluated the BID RP2D from the dose-escalation phase and food effects (Fig. 1). The food-effects cohort comprised two sequences: fast followed by fed (sequence 1) and fed followed by fast (sequence 2). […] The decision to proceed to the next dose cohort was determined by the Safety Monitoring Committee and followed a modified 3 + 3 escalation scheme. […] When ≥2 DLTs occurred in the first 23 days of a dose level, the next lower dose level was declared the MTD. Safety was monitored and DLTs were assessed in all dose cohorts. […] The food-effects cohort investigated the effects of food on the PK of pamiparib in patients with advanced solid tumours.
The QD dosing regimen was added as an amendment to the protocol with the purpose of exploring the feasibility of a more convenient regimen.
Safety and tolerability were assessed throughout the study by monitoring adverse events (AEs), serious AEs, clinical laboratory measurements and physical examinations. Adverse events were categorised according to their severity (National Cancer Institute Common Terminology Criteria for Adverse Events v4.03) and relationship to the study treatment.

C[C@]12CCCN1CC1=NNC(=O)c3cc(F)cc4[nH]c2c1c34 [pamiparib]
2 (66.7) n (%): Treatment-emergent AE: Serious (5.0 mg BID (n = 3)) | Treatment-related AE (5.0 mg BID (n = 3)) | Ascites, AE of any grade (10 mg BID (n = 3)) | Treatment-emergent AE: Grade 3 or higher (10 mg BID (n = 3)) | Treatment-emergent AE: Serious (10 mg BID (n = 3)) | Abdominal pain, AE of any grade (20 mg BID (n = 3))
4 (100.0) n (%): Treatment-emergent AE (2.5 mg BID (n = 4))
0 (0.0) n (%): Back pain, AE of any grade (2.5 mg BID (n = 4)) | Cough, AE of any grade (2.5 mg BID (n = 4)) | Decreased appetite, AE of any grade (2.5 mg BID (n = 4)) | Diarrhoea, AE of any grade (2.5 mg BID (n = 4)) | Dose-limiting toxicity (2.5 mg BID (n = 4)) | Dyspnoea, AE of any grade (2.5 mg BID (n = 4)) | Headache, AE of any grade (2.5 mg BID (n = 4)) | Hypomagnesemia, AE of any grade (2.5 mg BID (n = 4)) | Hypophosphatemia, AE of any grade (2.5 mg BID (n = 4)) | Increased AST, AE of any grade (2.5 mg BID (n = 4)) | Neutropenia, AE of any grade (2.5 mg BID (n = 4)) | Non-cardiac chest pain, AE of any grade (2.5 mg BID (n = 4)) | Pain in extremity, AE of any grade (2.5 mg BID (n = 4)) | Peripheral sensory neuropathy, AE of any grade (2.5 mg BID (n = 4)) | Pleural effusion, AE of any grade (2.5 mg BID (n = 4)) | Treatment-emergent AE: Leading to death (2.5 mg BID (n = 4)) | Treatment-emergent AE: Leading to dose reduction (2.5 mg BID (n = 4)) | Treatment-emergent AE: Leading to treatment discontinuation (2.5 mg BID (n = 4)) | Treatment-related AE: Grade 3 or higher (2.5 mg BID (n = 4)) | Treatment-related AE: Leading to death (2.5 mg BID (n = 4)) | Treatment-related AE: Leading to dose interruption (2.5 mg BID (n = 4)) | Treatment-related AE: Leading to dose modification (2.5 mg BID (n = 4)) | Treatment-related AE: Leading to dose reduction (2.5 mg BID (n = 4)) | Treatment-related AE: Leading to treatment discontinuation (2.5 mg BID (n = 4)) | Treatment-related AE: Serious (2.5 mg BID (n = 4)) | Urinary tract infection, AE of any grade (2.5 mg BID (n = 4)) | Abdominal pain, AE of any grade (5.0 mg BID (n = 3)) | Anaemia, AE of any grade (5.0 mg BID (n = 3)) | Ascites, AE of any grade (5.0 mg BID (n = 3)) | Back pain, AE of any grade (5.0 mg BID (n = 3)) | Constipation, AE of any grade (5.0 mg BID (n = 3)) | Cough, AE of any grade (5.0 mg BID (n = 3)) | Decreased appetite, AE of any grade (5.0 mg BID (n = 3)) | Dose-limiting toxicity (5.0 mg BID (n = 3)) | Dyspnoea, AE of any grade (5.0 mg BID (n = 3)) | Hypoalbuminemia, AE of any grade (5.0 mg BID (n = 3)) | Hypomagnesemia, AE of any grade (5.0 mg BID (n = 3)) | Hypophosphatemia, AE of any grade (5.0 mg BID (n = 3)) | Increased AST, AE of any grade (5.0 mg BID (n = 3)) | Nausea, AE of any grade (5.0 mg BID (n = 3)) | Neutropenia, AE of any grade (5.0 mg BID (n = 3)) | Non-cardiac chest pain, AE of any grade (5.0 mg BID (n = 3)) | Pain in extremity, AE of any grade (5.0 mg BID (n = 3)) | Pyrexia, AE of any grade (5.0 mg BID (n = 3)) | Treatment-emergent AE: Leading to death (5.0 mg BID (n = 3)) | Treatment-emergent AE: Leading to dose reduction (5.0 mg BID (n = 3)) | Treatment-emergent AE: Leading to treatment discontinuation (5.0 mg BID (n = 3)) | Treatment-related AE: Grade 3 or higher (5.0 mg BID (n = 3)) | Treatment-related AE: Leading to death (5.0 mg BID (n = 3)) | Treatment-related AE: Leading to dose interruption (5.0 mg BID (n = 3)) | Treatment-related AE: Leading to dose modification (5.0 mg BID (n = 3)) | Treatment-related AE: Leading to dose reduction (5.0 mg BID (n = 3)) | Treatment-related AE: Leading to treatment discontinuation (5.0 mg BID (n = 3)) | Treatment-related AE: Serious (5.0 mg BID (n = 3)) | Upper respiratory tract infection, AE of any grade (5.0 mg BID (n = 3)) | Urinary tract infection, AE of any grade (5.0 mg BID (n = 3)) | Vomiting, AE of any grade (5.0 mg BID (n = 3)) | Back pain, AE of any grade (10 mg BID (n = 3)) | Decreased appetite, AE of any grade (10 mg BID (n = 3)) | Dose-limiting toxicity (10 mg BID (n = 3)) | Fatigue, AE of any grade (10 mg BID (n = 3)) | Headache, AE of any grade (10 mg BID (n = 3)) | Hypoalbuminemia, AE of any grade (10 mg BID (n = 3)) | Hypophosphatemia, AE of any grade (10 mg BID (n = 3)) | Increased AST, AE of any grade (10 mg BID (n = 3)) | Muscle spasms, AE of any grade (10 mg BID (n = 3)) | Neutropenia, AE of any grade (10 mg BID (n = 3)) | Non-cardiac chest pain, AE of any grade (10 mg BID (n = 3)) | Pain in extremity, AE of any grade (10 mg BID (n = 3)) | Peripheral sensory neuropathy, AE of any grade (10 mg BID (n = 3)) | Pleural effusion, AE of any grade (10 mg BID (n = 3)) | Treatment-emergent AE: Leading to death (10 mg BID (n = 3)) | Treatment-emergent AE: Leading to dose reduction (10 mg BID (n = 3)) | Treatment-emergent AE: Leading to treatment discontinuation (10 mg BID (n = 3)) | Treatment-related AE (10 mg BID (n = 3)) | Treatment-related AE: Grade 3 or higher (10 mg BID (n = 3)) | Treatment-related AE: Leading to death (10 mg BID (n = 3)) | Treatment-related AE: Leading to dose interruption (10 mg BID (n = 3)) | Treatment-related AE: Leading to dose modification (10 mg BID (n = 3)) | Treatment-related AE: Leading to dose reduction (10 mg BID (n = 3)) | Treatment-related AE: Leading to treatment discontinuation (10 mg BID (n = 3)) | Treatment-related AE: Serious (10 mg BID (n = 3)) | Upper respiratory tract infection, AE of any grade (10 mg BID (n = 3)) | Urinary tract infection, AE of any grade (10 mg BID (n = 3)) | Anaemia, AE of any grade (20 mg BID (n = 3))
1 (33.3) n (%): Diarrhoea, AE of any grade (5.0 mg BID (n = 3)) | Fatigue, AE of any grade (5.0 mg BID (n = 3)) | Headache, AE of any grade (5.0 mg BID (n = 3)) | Muscle spasms, AE of any grade (5.0 mg BID (n = 3)) | Peripheral sensory neuropathy, AE of any grade (5.0 mg BID (n = 3)) | Pleural effusion, AE of any grade (5.0 mg BID (n = 3)) | Treatment-emergent AE: Grade 3 or higher (5.0 mg BID (n = 3)) | Treatment-emergent AE: Leading to dose interruption (5.0 mg BID (n = 3)) | Treatment-emergent AE: Leading to dose modification (5.0 mg BID (n = 3)) | Abdominal pain, AE of any grade (10 mg BID (n = 3)) | Anaemia, AE of any grade (10 mg BID (n = 3)) | Constipation, AE of any grade (10 mg BID (n = 3)) | Cough, AE of any grade (10 mg BID (n = 3)) | Diarrhoea, AE of any grade (10 mg BID (n = 3)) | Dyspnoea, AE of any grade (10 mg BID (n = 3)) | Hypomagnesemia, AE of any grade (10 mg BID (n = 3)) | Nausea, AE of any grade (10 mg BID (n = 3)) | Pyrexia, AE of any grade (10 mg BID (n = 3)) | Treatment-emergent AE: Leading to dose interruption (10 mg BID (n = 3)) | Treatment-emergent AE: Leading to dose modification (10 mg BID (n = 3)) | Vomiting, AE of any grade (10 mg BID (n = 3))
3 (75.0) n (%): Nausea, AE of any grade (2.5 mg BID (n = 4)) | Treatment-emergent AE: Grade 3 or higher (2.5 mg BID (n = 4)) | Treatment-emergent AE: Serious (2.5 mg BID (n = 4)) | Treatment-related AE (2.5 mg BID (n = 4))
1 (25.0) n (%): Abdominal pain, AE of any grade (2.5 mg BID (n = 4)) | Anaemia, AE of any grade (2.5 mg BID (n = 4)) | Ascites, AE of any grade (2.5 mg BID (n = 4)) | Constipation, AE of any grade (2.5 mg BID (n = 4)) | Fatigue, AE of any grade (2.5 mg BID (n = 4)) | Hypoalbuminemia, AE of any grade (2.5 mg BID (n = 4)) | Muscle spasms, AE of any grade (2.5 mg BID (n = 4)) | Pyrexia, AE of any grade (2.5 mg BID (n = 4)) | Treatment-emergent AE: Leading to dose interruption (2.5 mg BID (n = 4)) | Treatment-emergent AE: Leading to dose modification (2.5 mg BID (n = 4)) | Upper respiratory tract infection, AE of any grade (2.5 mg BID (n = 4)) | Vomiting, AE of any grade (2.5 mg BID (n = 4))
3 (100.0) n (%): Treatment-emergent AE (5.0 mg BID (n = 3)) | Treatment-emergent AE (10 mg BID (n = 3))
